According to US20230165242A1, “RODENTICIDAL BAIT AND METHOD OF CONTROLLING TARGET HARMFUL RODENTS” (priority 2020, published 2023):

Experiments:
[1] = test system: brown rats (Rattus norvegicus) that are homozygotic carriers of the Y139C mutation; assay: Relative toxicity of cholecalciferol, single gavage dose, Y139C rats; format: in vivo; conditions: single gavage dose 30 mg/kg; 20 days
Source text: (§1) Warfarin-sensitive Sprague-Dawley rats (20 male rats and 20 female rats), male and female rats that are homozygotic carriers of the L120Q mutation, male and female Sprague-Dawley rats that are homozygotic carriers of the Y139F mutation and male and female brown rats (Rattus norvegicus) that are homozygotic carriers of the Y1 39C mutation are acclimatized for 5 days in the presence of a conventional solid feed and water in unlimited amounts. The rats are fed by gavage with a single dose of a gavage solution containing cholecalciferol (Sigma-Aldrich, France) in a solvent consisting of 95% (v/v) of oil and 5% (v/v) of DMSO. The rats are fed with a conventional solid feed and water in unlimited amounts. The amount of cholecalciferol administered is 30 mg of cholecalciferol per kilogram of body weight of the rat fed by gavage. The percentage of rats surviving gavage for 20 days, counting from the first day of gavage, is noted daily. The results given in Table 4 hereunder describe the mortality observed (“SD”, Sprague-Dawley). The amount of cholecalciferol ingested by the rodents during gavage corresponds to consumption by these rodents of a bait assayed at 300 ppm of cholecalciferol.

[2] = test system: warfarin-sensitive male OFA-Sprague-Dawley rats; assay: Dose/rodenticidal response effect of cholecalciferol; format: in vivo, rat; conditions: gavage, 21 days
Method: A gavage solution containing cholecalciferol (Sigma-Aldrich, France) in a solvent consisting of 95% (v/v) of oil and 5% (v/v) of DMSO is administered once a day for 3 consecutive days to warfarin-sensitive male OFA-Sprague-Dawley rats (Charles River, L′Arbresles, France), aged 10 weeks and with a body weight between 160 and 180 g. During this period of gavage, the rats are fed with a conventional solid feed and water in unlimited amounts. The doses of cholecalciferol administered to the OFA-Sprague-Dawley rats, given in Table 7 hereunder, are expressed in milligrams of cholecalciferol administered per kilogram of body weight of the gavage-fed rodent.
The percentage of rats surviving gavage is noted daily for 21 days counting from the first day of gavage.

[3] = test system: Warfarin-sensitive Sprague-Dawley rats; assay: Relative toxicity of cholecalciferol, single gavage dose, “SD” rats; format: in vivo, rat; conditions: single gavage dose 30 mg/kg; 20 days
Source text: as §1

[4] = test system: Sprague-Dawley rats that are homozygotic carriers of the Y139F mutation; assay: Relative toxicity of cholecalciferol, single gavage dose, Y139F rats; format: in vivo, rat; conditions: single gavage dose 30 mg/kg; 20 days
Source text: as §1

[5] = test system: warfarin-sensitive male OFA-Sprague-Dawley rats; assay: Prothrombin level, Quick's time (bromadiolone / cholecalciferol gavage); format: in vivo, rat
Source text: Warfarin-sensitive male OFA-Sprague-Dawley rats (Charles River, L′Arbresles, France) are fed by gavage for 3 consecutive days with a gavage solution containing bromadiolone (LIPHATECH, France) and cholecalciferol (Sigma-Aldrich, France) in a solvent consisting of 95% (v/v) of oil and 5% (v/v) of DMSO. During this period of gavage, the rats are fed with a conventional solid feed and water in unlimited amounts. The concentrations of bromadiolone and cholecalciferol in the gavage solution are 0.1 g/kg (100 ppm) and 7.5 g/kg (7500 ppm) respectively. Each rat receives daily a volume of gavage solution calculated to correspond to 1 mL of gavage solution per kilogram of body weight. The OFA-Sprague-Dawley rats in two control groups are fed by gavage in the same conditions with gavage solutions containing bromadiolone (alone) at a concentration of 100 ppm or cholecalciferol (alone) at a concentration of 7500 ppm, respectively. 24 hours after the last gavage, a volume of blood is taken from each rat by intracardiac puncture and placed in a specimen tube containing sodium citrate. The animals are euthanized after puncture and the plasma is prepared by centrifugation. Quick's time (or clotting time) is evaluated on the plasma supplemented with sodium citrate, then decalcified and recalcified in the presence of calcium thromboplastin. Quick's time is evaluated by means of an optical device for clotting analysis (Option 2plus, Bio Mèrieux®). The results are presented [FIG. 2]. The average Quick's time measured on the plasma from the rats fed by gavage with bromadiolone (bar “B”) is 12.4 seconds (±1.8), the average Quick's time measured on the plasma from the rats fed by gavage with cholecalciferol (bar “C”) is 12.4 seconds (±0.9) and the average Quick's time measured on the plasma from the rats fed by gavage with the composition comprising bromadiolone and cholecalciferol (bar “D”) is 14.1 seconds (±2.7). The differences in values of Quick's time measured between the three groups of rats are not significant. The rats in the group of rats that received the combination of bromadiolone and cholecalciferol coagulate in the same way as the rats in the group of rats that received the gavage solution containing bromadiolone on the one hand and the rats in the group of rats that received the gavage solution containing cholecalciferol on the other hand. Quick's time for rats treated with a control solution formed from oil (95%, v/v) and DMSO (5%, v/v) is (bar “A”) 12.8 seconds (±2.3). Neither the gavage solution containing bromadiolone in combination with cholecalciferol, nor the gavage solution containing bromadiolone alone, nor the gavage solution containing cholecalciferol induces an increase of Quick's time relative to the control. […]

## C=C1CC[C@H](O)C/C1=C/C=C1\CCC[C@]2(C)[C@@H]([C@H](C)CCCC(C)C)CC[C@@H]12 [cholecalciferol]
[1]
  Female mortality, %: 0%
  Male mortality, %: 30%
[2]; dose 5 mg/kg once a day for 3 days
  Mortality, %: 20%
[2]; dose 7.5 mg/kg once a day for 3 days
  Mortality, %: 30%
[3]
  Female mortality, %: 30%
  Male mortality, %: 10%
[4]
  Female mortality, %: 0%
  Male mortality, %: 30%
[5]; 3 daily gavages, bromadiolone 100 ppm and/or cholecalciferol 7500 ppm solution, 1 mL/kg
  anticoagulant effect (increase of Quick's time relative to the control): not anticoagulants
[5]; plasma 24 hours after last of 3 daily gavages, 1 mL/kg of solution with bromadiolone 100 ppm and/or cholecalciferol 7500 ppm
  average Quick's time (clotting time): 12.4 s
